Among the data in patent US12421232B2, “Kinase inhibitor compounds and compositions and methods of use” (ICAHN SCHOOL OF MEDICINE AT MOUNT SINAI, priority 2018, dated 2025) are remaining binding values, retold here.

Like-named read-outs stand apart in the source and are kept apart here.

Common to all, as to experiment: KINOMEscan Assay (DiscoverX)
Common to all, as to format: binding
Details in all cases: read-out: % DMSO Ctrl

Test [1] has as its target T1, JAK3(JH1DOMAIN-CATALYTIC) (Homo sapiens, UniProt P52333).
T1 construct: JH1DOMAIN; purchased DiscoverX

Test [2] concerns the target T2, RPS6KA4(Kin.Dom.2-C-terminal) (Homo sapiens, UniProt O75676).
T2 construct: Kin.Dom.2; purchased DiscoverX

Test [3] addresses T3, PIKFYVE (Homo sapiens, UniProt Q9Y2I7).
T3 construct: purchased DiscoverX

Test [4] concerns the target T4, PDGFRB (Homo sapiens, UniProt P09619).
T4 construct: purchased DiscoverX

Test [5] has as its target T5, PIK3C2G (Homo sapiens, UniProt O75747).
T5 construct: purchased DiscoverX
T5 sequence (O75747 1-1486): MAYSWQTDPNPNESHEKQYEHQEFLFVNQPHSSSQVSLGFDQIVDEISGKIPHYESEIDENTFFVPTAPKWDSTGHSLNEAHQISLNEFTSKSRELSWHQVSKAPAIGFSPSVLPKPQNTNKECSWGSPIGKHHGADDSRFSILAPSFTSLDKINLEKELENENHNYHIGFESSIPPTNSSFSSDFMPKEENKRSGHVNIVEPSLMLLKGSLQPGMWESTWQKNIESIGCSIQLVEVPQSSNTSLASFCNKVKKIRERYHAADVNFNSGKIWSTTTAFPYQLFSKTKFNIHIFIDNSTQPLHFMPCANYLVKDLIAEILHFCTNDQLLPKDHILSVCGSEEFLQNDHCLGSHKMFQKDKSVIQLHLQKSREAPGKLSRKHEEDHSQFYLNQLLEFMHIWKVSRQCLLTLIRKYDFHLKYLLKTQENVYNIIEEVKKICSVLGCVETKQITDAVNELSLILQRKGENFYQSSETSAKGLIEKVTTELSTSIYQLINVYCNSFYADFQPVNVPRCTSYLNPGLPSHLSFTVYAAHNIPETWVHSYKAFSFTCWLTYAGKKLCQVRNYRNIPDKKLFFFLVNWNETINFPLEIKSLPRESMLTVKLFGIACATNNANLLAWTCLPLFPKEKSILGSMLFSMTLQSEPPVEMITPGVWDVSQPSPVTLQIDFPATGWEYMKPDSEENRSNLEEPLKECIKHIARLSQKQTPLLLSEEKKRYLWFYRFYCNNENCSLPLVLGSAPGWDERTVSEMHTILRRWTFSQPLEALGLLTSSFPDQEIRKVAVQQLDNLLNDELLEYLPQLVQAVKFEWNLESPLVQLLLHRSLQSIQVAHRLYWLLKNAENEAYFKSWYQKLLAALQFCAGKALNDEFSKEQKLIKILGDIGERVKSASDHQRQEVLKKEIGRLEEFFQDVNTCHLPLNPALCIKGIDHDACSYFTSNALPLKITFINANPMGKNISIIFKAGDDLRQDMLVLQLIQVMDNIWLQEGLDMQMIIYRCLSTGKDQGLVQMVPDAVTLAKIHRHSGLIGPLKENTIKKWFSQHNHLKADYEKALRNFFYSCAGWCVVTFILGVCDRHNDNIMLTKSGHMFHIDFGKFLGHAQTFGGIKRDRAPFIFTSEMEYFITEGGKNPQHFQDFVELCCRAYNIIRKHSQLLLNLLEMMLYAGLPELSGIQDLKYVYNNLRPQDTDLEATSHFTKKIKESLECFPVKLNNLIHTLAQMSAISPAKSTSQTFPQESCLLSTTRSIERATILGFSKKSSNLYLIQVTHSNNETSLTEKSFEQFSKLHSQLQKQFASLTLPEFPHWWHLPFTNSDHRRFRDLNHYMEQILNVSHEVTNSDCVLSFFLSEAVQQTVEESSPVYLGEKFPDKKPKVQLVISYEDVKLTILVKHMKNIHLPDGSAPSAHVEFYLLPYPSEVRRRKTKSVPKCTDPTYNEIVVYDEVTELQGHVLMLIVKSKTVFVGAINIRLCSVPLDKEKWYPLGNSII

For test [6], the target named is T6, PIK3CA(I800L) (Homo sapiens, UniProt P42336, I800L).
T6 construct: purchased DiscoverX

For test [7], the target named is T7, CAMK2B (Homo sapiens, UniProt Q13554).
T7 construct: purchased DiscoverX

Test [8] concerns the target T8, PIP5K2C (Homo sapiens, UniProt Q8TBX8).
T8 construct: purchased DiscoverX
T8 sequence (Q8TBX8 1-421): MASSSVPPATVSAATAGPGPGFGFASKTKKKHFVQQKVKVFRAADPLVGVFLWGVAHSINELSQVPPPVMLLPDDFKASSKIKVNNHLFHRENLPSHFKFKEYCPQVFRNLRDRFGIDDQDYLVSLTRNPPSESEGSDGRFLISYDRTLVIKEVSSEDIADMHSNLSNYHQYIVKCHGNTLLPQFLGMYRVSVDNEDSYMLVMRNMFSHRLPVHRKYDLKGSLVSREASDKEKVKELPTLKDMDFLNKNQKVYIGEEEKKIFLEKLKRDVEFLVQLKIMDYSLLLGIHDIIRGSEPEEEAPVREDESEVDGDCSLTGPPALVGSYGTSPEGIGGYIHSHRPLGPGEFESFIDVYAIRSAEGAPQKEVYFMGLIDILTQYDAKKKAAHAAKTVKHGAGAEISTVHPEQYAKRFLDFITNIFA

T6 sequence (P42336 whole entry I800L): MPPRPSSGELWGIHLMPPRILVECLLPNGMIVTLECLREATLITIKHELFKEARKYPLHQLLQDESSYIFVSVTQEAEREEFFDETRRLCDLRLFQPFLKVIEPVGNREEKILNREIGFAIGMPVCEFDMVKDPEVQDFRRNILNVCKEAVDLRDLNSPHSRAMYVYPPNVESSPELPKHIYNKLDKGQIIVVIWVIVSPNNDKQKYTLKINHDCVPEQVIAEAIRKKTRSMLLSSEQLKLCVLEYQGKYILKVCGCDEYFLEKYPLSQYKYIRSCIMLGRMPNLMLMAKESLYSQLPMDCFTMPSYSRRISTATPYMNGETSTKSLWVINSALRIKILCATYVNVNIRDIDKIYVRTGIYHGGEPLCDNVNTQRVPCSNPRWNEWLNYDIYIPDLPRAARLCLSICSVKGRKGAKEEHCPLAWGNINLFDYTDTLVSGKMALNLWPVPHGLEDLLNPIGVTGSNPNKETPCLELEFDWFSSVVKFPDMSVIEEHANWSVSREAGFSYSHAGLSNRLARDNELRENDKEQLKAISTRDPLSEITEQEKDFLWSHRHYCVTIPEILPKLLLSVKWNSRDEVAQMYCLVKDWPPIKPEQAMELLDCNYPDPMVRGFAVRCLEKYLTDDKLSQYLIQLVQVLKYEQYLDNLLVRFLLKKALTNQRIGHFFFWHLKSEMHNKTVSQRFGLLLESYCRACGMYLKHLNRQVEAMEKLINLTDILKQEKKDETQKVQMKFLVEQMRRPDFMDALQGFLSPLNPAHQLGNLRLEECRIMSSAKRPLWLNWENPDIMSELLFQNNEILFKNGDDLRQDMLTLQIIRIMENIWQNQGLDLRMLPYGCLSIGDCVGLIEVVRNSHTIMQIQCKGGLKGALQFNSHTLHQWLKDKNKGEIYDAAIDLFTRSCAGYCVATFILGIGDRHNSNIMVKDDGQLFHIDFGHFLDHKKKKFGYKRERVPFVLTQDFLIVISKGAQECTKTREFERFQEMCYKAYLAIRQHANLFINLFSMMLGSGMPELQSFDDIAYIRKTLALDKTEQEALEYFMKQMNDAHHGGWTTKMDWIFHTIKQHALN
T1 sequence (P52333 822-1111 limits assumed): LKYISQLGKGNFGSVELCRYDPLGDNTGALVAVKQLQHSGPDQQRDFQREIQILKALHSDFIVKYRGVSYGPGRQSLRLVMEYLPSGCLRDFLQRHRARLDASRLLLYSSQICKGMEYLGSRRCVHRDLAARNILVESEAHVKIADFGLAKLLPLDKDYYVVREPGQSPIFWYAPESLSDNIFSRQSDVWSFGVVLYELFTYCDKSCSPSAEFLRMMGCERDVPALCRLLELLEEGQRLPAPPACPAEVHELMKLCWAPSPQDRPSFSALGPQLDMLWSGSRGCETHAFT
T4 sequence (P09619 33-1106): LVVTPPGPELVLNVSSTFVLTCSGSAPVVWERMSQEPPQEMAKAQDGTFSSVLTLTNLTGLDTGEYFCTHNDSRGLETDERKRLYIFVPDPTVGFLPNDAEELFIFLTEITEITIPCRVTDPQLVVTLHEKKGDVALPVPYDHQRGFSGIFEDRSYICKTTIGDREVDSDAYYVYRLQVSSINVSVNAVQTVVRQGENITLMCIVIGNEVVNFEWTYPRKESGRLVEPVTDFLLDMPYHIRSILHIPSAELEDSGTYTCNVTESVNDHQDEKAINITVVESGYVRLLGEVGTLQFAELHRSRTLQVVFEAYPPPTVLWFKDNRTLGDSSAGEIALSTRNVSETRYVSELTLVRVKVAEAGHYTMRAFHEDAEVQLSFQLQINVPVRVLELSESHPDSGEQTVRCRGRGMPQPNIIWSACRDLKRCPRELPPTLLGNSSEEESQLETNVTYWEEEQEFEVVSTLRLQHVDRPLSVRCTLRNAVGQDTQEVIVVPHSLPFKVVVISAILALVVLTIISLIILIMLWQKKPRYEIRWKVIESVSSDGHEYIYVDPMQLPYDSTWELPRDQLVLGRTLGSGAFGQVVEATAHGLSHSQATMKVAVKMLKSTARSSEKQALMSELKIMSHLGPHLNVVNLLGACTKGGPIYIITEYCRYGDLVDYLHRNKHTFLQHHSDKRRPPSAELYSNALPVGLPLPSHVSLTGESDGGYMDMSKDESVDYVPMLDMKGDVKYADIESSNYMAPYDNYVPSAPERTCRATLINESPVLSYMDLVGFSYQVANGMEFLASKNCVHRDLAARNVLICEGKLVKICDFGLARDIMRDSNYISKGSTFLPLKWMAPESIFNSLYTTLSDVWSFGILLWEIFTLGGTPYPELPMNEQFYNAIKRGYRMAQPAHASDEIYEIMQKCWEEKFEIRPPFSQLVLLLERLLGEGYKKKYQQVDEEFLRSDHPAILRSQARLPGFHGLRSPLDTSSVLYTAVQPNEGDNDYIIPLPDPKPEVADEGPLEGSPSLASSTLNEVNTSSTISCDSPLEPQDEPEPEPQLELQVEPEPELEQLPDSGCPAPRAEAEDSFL
T7 sequence (Q13554 whole entry): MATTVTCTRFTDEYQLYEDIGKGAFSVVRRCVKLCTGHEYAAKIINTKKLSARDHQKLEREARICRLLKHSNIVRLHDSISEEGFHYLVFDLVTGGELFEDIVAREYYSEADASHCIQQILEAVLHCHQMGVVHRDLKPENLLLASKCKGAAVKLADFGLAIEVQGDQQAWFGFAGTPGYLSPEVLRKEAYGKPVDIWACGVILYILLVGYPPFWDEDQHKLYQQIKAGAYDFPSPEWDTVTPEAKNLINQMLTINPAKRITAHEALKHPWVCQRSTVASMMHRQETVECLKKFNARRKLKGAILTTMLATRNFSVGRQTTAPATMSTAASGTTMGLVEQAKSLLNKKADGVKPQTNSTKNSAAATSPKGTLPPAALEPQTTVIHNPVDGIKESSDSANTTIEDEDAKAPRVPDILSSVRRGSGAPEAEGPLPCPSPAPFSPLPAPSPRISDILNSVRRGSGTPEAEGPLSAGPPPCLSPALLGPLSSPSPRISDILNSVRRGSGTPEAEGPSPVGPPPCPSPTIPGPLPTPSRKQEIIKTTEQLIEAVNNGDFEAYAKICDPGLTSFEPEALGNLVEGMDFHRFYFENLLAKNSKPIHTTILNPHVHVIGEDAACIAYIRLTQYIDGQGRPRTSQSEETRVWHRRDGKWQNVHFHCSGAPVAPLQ
T2 sequence (O75676 411-674 limits assumed): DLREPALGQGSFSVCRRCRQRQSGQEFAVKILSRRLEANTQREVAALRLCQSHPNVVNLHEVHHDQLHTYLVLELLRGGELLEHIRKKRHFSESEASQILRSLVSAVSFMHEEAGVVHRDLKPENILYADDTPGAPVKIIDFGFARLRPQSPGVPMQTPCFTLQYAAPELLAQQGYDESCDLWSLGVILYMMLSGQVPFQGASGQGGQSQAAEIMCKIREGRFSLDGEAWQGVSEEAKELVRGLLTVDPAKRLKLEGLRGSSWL

As to `COc1ccc2c(c1)[nH]c1c(C)nccc12` [Harmine, reference compound], the remaining binding at 10 µM in test [1] was 61%.
As to `COc1ccc2c(c1)[nH]c1c(C)nc(CO)cc12` [Compound 2-8, (1-Methyl-7-methoxy-9H-pyrido[3,4-b]indol-3-yl)methanol], the remaining binding at 10 µM in test [2] (RPS6KA4(Kin.Dom.2-C-terminal), 10 μM) was 1%; in test [3] (PIKFYVE, 10 μM), 88%; in test [4] (PDGFRB, 10 μM) it was 97%; in test [1] (JAK3(JH1DOMAIN-[…]), 10 μM), 96%; in test [5] (PIK3C2G, 10 μM), 36%; in test [6] (PIK3CA(I800L) mutant, 10 μM) it was 63%. In addition, the remaining binding at 10 µM in test [7] (CAMK2B, 10 μM) was found to be 42%; in test [8] (PIP5K2C, 10 μM), 5%.
Take `COc1ccc2c3ccnc(C)c3n(CCCc3noc(N)n3)c2c1` [Compound 20-13, 3-(3-(7-Methoxy-1-methyl-β-carbolin-9-yl)propyl)-5-amino-1,2,4-oxadiazole]: the remaining binding at 10 µM in test [2] stood at 85%; in test [3], 3.2%; in test [4], 100%; in test [1], 87%; in test [5], 1.2%; in test [6], 10%. The remaining binding at 10 µM is 69% in test [7] and 13% in test [8].
As to `C#CCn1c2cc(OC)ccc2c2ccnc(C)c21` [Compound 20-23a, 3-(7-Methoxy-1-methyl-β-carbolin-9-yl)-propan-1-yne], the remaining binding at 10 µM in test [2] came to 55%; in test [3] it was 60%; in test [4] it was 77%; in test [1] (JAK3(JH1DOMAIN-[…]), 10 μM) it was 100%; in test [5] it was 38%; in test [6], 73%. Further, the remaining binding at 10 µM was 3% in test [7] and 41% in test [8].
